Test results as given in patent US11684606B2, “Methods of treating generalized pustular psoriasis with an antagonist of CCR6 or CXCR2” (CHEMOCENTRYX, INC., priority 2018, dated 2023).
pIC50: −log10 of the molar value. ≈ marks a conversion by molar mass, not a printed value. Entries after “also recorded” stand apart in the source; their conditions may differ.

Experiments:
mCCR2 = target: T1, mCCR2 (Mus musculus, UniProt P51683); test: Chemotaxis of mouse bone marrow cells to mCCL2; assay type: cell-based; conditions: in serum; unit inferred
T1 construct: endogenous in cells; host or cells: mouse bone marrow cells (from the earlier reading's assay name)
T1 sequence (P51683 whole entry): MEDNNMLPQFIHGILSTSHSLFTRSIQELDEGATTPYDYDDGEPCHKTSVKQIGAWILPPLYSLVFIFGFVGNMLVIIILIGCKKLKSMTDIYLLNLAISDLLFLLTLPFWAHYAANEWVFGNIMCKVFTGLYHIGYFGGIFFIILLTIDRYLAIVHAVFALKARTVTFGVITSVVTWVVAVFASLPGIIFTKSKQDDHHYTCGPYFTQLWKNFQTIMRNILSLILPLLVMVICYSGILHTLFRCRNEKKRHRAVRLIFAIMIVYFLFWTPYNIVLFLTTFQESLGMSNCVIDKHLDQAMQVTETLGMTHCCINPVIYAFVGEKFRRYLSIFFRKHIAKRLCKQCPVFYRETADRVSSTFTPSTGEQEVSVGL

mCXCR4 = target: T2, mCXCR4 (Mus musculus, UniProt P70658); test: Chemotaxis of mouse BaF3-WT to mCXCL12; assay type: cell-based; conditions: in serum; unit inferred
T2 construct: endogenous in cells; host or cells: mouse BaF3-WT cells (from the earlier reading's assay name)
T2 sequence (P70658 whole entry): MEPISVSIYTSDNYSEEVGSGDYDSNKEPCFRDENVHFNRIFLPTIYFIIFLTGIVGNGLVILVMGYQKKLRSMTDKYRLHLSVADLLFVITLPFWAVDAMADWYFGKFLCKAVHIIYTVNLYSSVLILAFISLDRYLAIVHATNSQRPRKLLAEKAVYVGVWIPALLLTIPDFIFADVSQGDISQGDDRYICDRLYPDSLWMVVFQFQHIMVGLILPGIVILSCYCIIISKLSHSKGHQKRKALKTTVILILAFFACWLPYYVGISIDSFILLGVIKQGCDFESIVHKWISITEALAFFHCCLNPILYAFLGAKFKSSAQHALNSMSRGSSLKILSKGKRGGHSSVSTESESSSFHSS

[1] = system: CD4 T cells, neutrophils and inflammatory dendritic cells within IL-36-treated skin; test: Flow cytometry of leukocytes accumulating in IL-36-treated skin; assay type: in vivo, mouse; conditions: after 4 daily IL-36α ear injections; Compound 1.136 90 mg/kg/day s.c.; α-IL-17RA 200 μg/mouse/day i.p.; 90 mg/kg/day
Experimental: (§1) For in vivo dosing, mice were dosed subcutaneously with Compound 1.136 once daily (s.c. q.d. in 1% HPMC) at 90 mg/kg unless stated otherwise, starting at day 0 of a study. The in vivo dose was predicted based on in vitro potency and the pharmacokinetic response to a single dose in mice. The minimum antagonist concentration (at trough) to fully cover a gradient-sensing chemoattractant receptor has been determined to correspond with the IC90 concentration (Schall, T. J., and A. E. Proudfoot. 2011. Overcoming hurdles in developing successful drugs targeting chemokine receptors. Nat Rev Immunol 11: 355-363).
Flow cytometry of leukocytes. Ears or excised skin samples were digested in collagenase A and 1 U/ml DNAse I with agitation for 30 min at 37° C. Cells were then dislodged from skin, filtered through a […] sieve, washed and re-suspended in FACS buffer (PBS with 10% FBS) for analysis.
Directly conjugated Monoclonal antibodies were from R&D Systems (Minneapolis, Minn.), BioLegend (San Diego, Calif.), or eBioscience/ThermoFisher (San Diego, Calif.). CD45.2 (104) in AlexaFluor488, Ly6C (HK1.4) in PE, CD90.2 (30-H12) in Per CP-Cy5.5, TCRVγ4 (UC3-10A6) in PE-Cy7, TCRβ (H57-597) in APC, CD4 (GK1.5) in APC-eFluor-780, TCRγδ (GL3) in BV-421, LIVE/DEAD fixable Aqua stain (Molecular Probes, Eugene, Oreg.), CD11c (N418) in BV650, Ly6G (1A4) in BV711 and CD11b (M1/70) in BV785. Flow cytometry data were acquired with a Fortessa (BD Biosciences) cytometer and analyzed using FlowJo v10.2

mCCR5 = target: T3, mCCR5 (Mus musculus, UniProt P51682); test: Chemotaxis of mCCR5-transfected BaF3 cells to mCCL5; assay type: cell-based; conditions: in serum; unit inferred
T3 construct: expressed in transfected cells; host or cells: BaF3 cells (from the earlier reading's assay name)
T3 sequence (P51682 whole entry): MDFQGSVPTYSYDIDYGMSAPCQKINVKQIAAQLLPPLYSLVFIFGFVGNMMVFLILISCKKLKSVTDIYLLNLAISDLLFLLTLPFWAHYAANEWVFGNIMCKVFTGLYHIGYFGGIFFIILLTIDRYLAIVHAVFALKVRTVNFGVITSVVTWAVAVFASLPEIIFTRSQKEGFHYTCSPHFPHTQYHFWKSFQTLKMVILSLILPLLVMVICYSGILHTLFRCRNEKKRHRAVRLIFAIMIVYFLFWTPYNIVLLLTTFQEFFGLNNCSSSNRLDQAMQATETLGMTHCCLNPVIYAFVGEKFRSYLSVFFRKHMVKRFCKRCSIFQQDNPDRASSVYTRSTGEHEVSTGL

mCCR6 = target: T4, mCCR6 (Mus musculus, UniProt O54689); test: In vitro inhibition of chemotaxis, mCCR6-transfected BaF3 cells to mCCL20; assay type: cell-based; conditions: in 100% serum
T4 construct: expressed in transfected cells; host or cells: BaF3 cells
T4 sequence (O54689 1-367): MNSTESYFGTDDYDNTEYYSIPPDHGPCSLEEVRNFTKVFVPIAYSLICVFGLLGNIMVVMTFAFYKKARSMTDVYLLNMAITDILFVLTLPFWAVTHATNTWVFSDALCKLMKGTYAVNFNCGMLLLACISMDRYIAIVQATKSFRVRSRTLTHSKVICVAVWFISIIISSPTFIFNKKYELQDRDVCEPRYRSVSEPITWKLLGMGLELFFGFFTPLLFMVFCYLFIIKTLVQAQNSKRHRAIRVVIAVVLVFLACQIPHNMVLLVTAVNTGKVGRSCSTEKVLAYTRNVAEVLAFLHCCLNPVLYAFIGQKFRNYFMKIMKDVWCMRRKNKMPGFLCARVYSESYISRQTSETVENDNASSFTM
Experimental: For in vitro determination of chemokine receptor inhibitor activity, Compound 1.136 was dissolved in DMSO to generate a stock concentration of 10 mM that was further diluted in chemotaxis migration buffer (HBSS, 1% BSA, 1% HEPES) to create a 10-point inhibitor gradient ranging from 100 nM-0.01 nM. Migration assay was then run in 100% mouse serum in response to rmCCL20 for CCR6 activity or rmCXCL1 for CXCR2 activity using ChemoTx plates (Neuroprobe, Gaithersburg Md.) and assessed by fluorescence staining of migrated cells with CyQuant (Thermo Fisher).

[2] = system: IL-36α-injected ears of Balb/c mice; test: Mouse model of IL-36-induced ear thickening (GPP model); assay type: in vivo
Experimental: as §1
Mouse model of IL-36-induced ear thickening. The right ear of 8-week old Balb/c mice received intradermal injections of recombinant murine IL-36α (150 μg per mouse formulated in PBS; BioLegend) every day for 5 days. Intradermal injections of PBS were given to the left ear as a control. Ear thickness was measured prior to start of study and each day thoughout the study using a digital micrometer. The imiquimod model of psoriasiform dermatitis was performed as previously described (Campbell Jet al. J Immunol. 2017; 199(9):3129-36. van der Fits et al. J Immunol 2009; 182(9):5836-45). Briefly, 5% Imiquimod (Fougera®) was applied daily to the shaved and depilated backs of Balb/c mice for up to 4 days. Control mice were treated with an application of Vaseline. Erythema, desquamation, and skin thickening were scored independently on a scale from 0 to 4 where 0=no disease; 1=slight disease; 2=moderate disease; 3=marked disease; 4=very marked disease (Campbell J et al. J Immunol. 2017; 199(9):3129-36. van der Fits et al. J Immunol 2009; 182(9):5836-45). Skin from the backs of mice was excised at the end of the study and processed for flow cytometry analysis,
Mouse anti-IL-17RA. (R&D Systems) was dosed as a positive control at 200-500 μg per mouse, i.p., q.d.

- pIC50 (mCCR2): < 5.00
- pIC50 (mCXCR4): < 5.00
- pIC50 (mCCR5): < 5.00
- IC90 (mCCR6; BaF3, read-out: IC90 for CCR6 inhibition): 0.045 µg/mL (≈ 0.102 µM)
- pIC50 (mCCR6; read-out: IC50 on mouse CCR6, in vitro inhibition of chemotaxis): 8.00
SMILES: CCC(C)(C)[C@@H](Nc1c(Nc2c(F)ccc3c2C(=O)N[C@H]3C)c(=O)c1=O)c1ccc(C)o1 [Compound 1.136]
- Accumulation of CD4+ T cells within IL-36-treated skin [1]: significantly reduced the accumulation; also recorded: significantly reduces accumulation
- Accumulation of inflammatory dendritic cells (iDC) within IL-36-treated skin [1]: significantly reduced the accumulation; also recorded: significantly reduces accumulation
- Accumulation of neutrophils within IL-36-treated skin [1]: significantly reduced the accumulation; also recorded: significantly reduces accumulation
- Effectiveness at reducing ear swelling, Compound 1.136 compared with α-IL-17RA ([2]; 90 mg/kg Compound 1.136 vs saturating dose of anti-IL-17RA MAb (500 μg per mouse per day), Mann-Whitney): significantly more effective than α-IL-17RA
- Time course of the effect on ear thickness ([2]; Balb/c mice, daily intradermal IL-36α, Compound 1.136 s.c. once daily): appreciable after the second day of treatment
- IL-36-induced ear thickening / ear swelling ([2]; Balb/c mice, daily intradermal IL-36α, ear thickness after 4 days, Compound 1.136 30-90 mg/kg s.c. q.d., anti-IL-17RA 200 or 500 μg per mouse IP daily): dose-dependent decreases in IL-36-induced ear thickening; also recorded: ameliorates inflammatory swelling of IL-36α-injected ears
